Data on two compounds can be found in US8343477B2, “Inhibitors of hepatitis C virus” (Bristol-Myers Squibb Company, priority 2006, dated 2013).

Data set [1] concerns the target T1, HCV NS3/4A protease complex, H77 strain (Hepatitis C virus genotype 1a, UniProt P27958, C1454S/C1711G).
T1 construct: DNA encoding the recombinant HCV NS3/4A protease complex (amino acids 1027 to 1711) for these strains; inferred from pET21b vector and Ni-NTA purification; made in house; host or cells: Escherichia coli BL21 (DE3), pET21b
In words: FRET peptide assay to monitor HCV NS3/4A proteolytic activity, H77 strain. Format: biochemical, HCV genotype 1a. The following applies: H77 strain (1a genotype). An excerpt:
(§1) HCV NS3 protease complexes, derived from the BMS strain, H77 strain or J4L6S strain, were generated, as described below. These purified recombinant proteins were generated for use in a homogeneous assay (see below) to provide an indication of how effective compounds of the present disclosure would be in inhibiting HCV NS3 proteolytic activity.
(§2) Serum from an HCV-infected patient was obtained from Dr. T. Wright, San Francisco Hospital. An engineered full-length cDNA (compliment deoxyribonucleic acid) template of the HCV genome (BMS strain) was constructed from DNA fragments obtained by reverse transcription-PCR(RT-PCR) of serum RNA (ribonucleic acid) and using primers selected on the basis of homology between other genotype 1a strains. From the determination of the entire genome sequence, a genotype 1a was assigned to the HCV isolate according to the classification of Simmonds et al. (See P Simmonds, K A Rose, S Graham, S W Chan, F McOmish, B C Dow, E A Follett, P L Yap and H Marsden, J. Clin. Microbiol., 31(6), 1493-1503 (1993)). […]

For data set [2], the system named is human pancreatic chymotrypsin. In words: Specificity assay, chymotrypsin (pNA substrate). Format: biochemical. Particulars: read-out: Chymotrypsin activity in the specificity assays (IC50). As to the method: The specificities of compounds of the present disclosure were determined against a variety of serine proteases: human neutrophil elastase (HNE), porcine pancreatic elastase (PPE) and human pancreatic chymotrypsin and one cysteine protease: human liver cathepsin B. In all cases, a 96-well plate format protocol using colorimetric p-nitroaniline (pNA) substrate or fluorometric Amino-Methyl-Coumarin (AMC) substrate, specific for each enzyme was used as described previously (PCT Patent Application No. WO 00/09543) with some modifications. All enzymes were purchased from Sigma or EMDbiosciences while the substrates were from Bachem.
Each pNA assay included a 2 h enzyme-inhibitor pre-incubation at room temperature followed by addition of substrate and hydrolysis to ˜15% conversion as measured on a Spectramax Pro microplate reader. The cathepsin B assay was initiated by adding substrate to a 10 min enzyme-inhibitor pre-incubation at room temperature, and the assay plate measured immediately using the Cytofluor Series 4000. Compound concentrations varied from 100 to 0.4 μM depending on their potency.
50 mM Tris(hydroxymethyl)aminomethane hydrochloride (Tris-HCl) pH 8, 0.5 M Sodium Sulfate (Na2SO4), 50 mM NaCl, 0.1 mM EDTA, 3% DMSO, 0.01% Tween-20 with: […]
The percentage of inhibition was calculated using the formula: [1−((UVinh−UVblank)/(UVctl−UVblank))]×100 […]

The target in data set [3] is HCV NS3/4A protease complex, BMS strain (Hepatitis C virus genotype 1a, UniProt P27958). In words: FRET peptide assay to monitor HCV NS3/4A proteolytic activity, BMS strain. Particulars: read-out: IC50 against the NS3/4A BMS strain in the enzyme assay. Format: biochemical, HCV genotype 1a.
Text: as §1
Serum from an HCV-infected patient was obtained from Dr. T. Wright, San Francisco Hospital. […]
In order to monitor HCV NS3/4A protease activity, an NS3/4A peptide substrate was used. […] The peptide also contains a fluorescence donor, EDANS, near one end of the peptide and an acceptor, DABCYL, near the other end. The fluorescence of the peptide is quenched by […] resonance energy transfer (RET) between the donor and the acceptor, but as the NS3 protease cleaves the peptide the products are released from RET quenching and the fluorescence of the donor becomes apparent.
The peptide substrate was incubated with one of the three recombinant NS3/4A protease complexes, in the absence or presence of a compound of the present disclosure. The inhibitory effects of a compound was determined by monitoring the formation of fluorescent reaction product in real time using a Cytofluor Series 4000. […]

In data set [4] the target is T2, HCV NS3/4A protease complex, J4L6S strain (Hepatitis C virus genotype 1b, UniProt O92972, C1454S/C1711G).
T2 construct: DNA encoding the recombinant HCV NS3/4A protease complex (amino acids 1027 to 1711) for these strains; inferred from pET21b vector and Ni-NTA purification; made in house; host or cells: Escherichia coli BL21 (DE3), pET21b
In words: FRET peptide assay to monitor HCV NS3/4A proteolytic activity, J4L6S strain. Format: biochemical, HCV genotype 1b. The following applies: J4L6S strain (1b genotype).
Text: as §1, §2

pIC50: −log10 of the molar value.

For orientation: melting point means the temperature, or range, at which the solid turns liquid.

T2 sequence (O92972 1027-1711 C1454S/C1711G, one chain of several): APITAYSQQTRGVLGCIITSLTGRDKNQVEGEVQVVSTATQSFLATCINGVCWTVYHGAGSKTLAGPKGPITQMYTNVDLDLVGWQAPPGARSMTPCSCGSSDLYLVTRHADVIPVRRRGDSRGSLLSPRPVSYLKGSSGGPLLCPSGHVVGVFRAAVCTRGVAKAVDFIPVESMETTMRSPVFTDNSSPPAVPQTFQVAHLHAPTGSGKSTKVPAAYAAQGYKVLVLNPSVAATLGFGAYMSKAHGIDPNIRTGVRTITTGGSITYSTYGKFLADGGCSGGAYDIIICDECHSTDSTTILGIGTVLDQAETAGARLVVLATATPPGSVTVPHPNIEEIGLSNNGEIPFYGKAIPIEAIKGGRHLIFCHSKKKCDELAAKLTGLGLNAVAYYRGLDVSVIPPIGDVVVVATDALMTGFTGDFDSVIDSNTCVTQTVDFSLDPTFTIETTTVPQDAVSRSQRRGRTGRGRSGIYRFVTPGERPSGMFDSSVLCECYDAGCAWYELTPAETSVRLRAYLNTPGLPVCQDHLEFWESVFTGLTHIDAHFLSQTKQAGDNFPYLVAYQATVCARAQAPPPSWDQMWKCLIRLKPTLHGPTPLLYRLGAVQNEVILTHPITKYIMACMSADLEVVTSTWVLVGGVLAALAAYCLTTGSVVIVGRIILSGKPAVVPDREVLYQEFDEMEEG
T1 sequence (P27958 1027-1711 C1454S/C1711G, one chain of several): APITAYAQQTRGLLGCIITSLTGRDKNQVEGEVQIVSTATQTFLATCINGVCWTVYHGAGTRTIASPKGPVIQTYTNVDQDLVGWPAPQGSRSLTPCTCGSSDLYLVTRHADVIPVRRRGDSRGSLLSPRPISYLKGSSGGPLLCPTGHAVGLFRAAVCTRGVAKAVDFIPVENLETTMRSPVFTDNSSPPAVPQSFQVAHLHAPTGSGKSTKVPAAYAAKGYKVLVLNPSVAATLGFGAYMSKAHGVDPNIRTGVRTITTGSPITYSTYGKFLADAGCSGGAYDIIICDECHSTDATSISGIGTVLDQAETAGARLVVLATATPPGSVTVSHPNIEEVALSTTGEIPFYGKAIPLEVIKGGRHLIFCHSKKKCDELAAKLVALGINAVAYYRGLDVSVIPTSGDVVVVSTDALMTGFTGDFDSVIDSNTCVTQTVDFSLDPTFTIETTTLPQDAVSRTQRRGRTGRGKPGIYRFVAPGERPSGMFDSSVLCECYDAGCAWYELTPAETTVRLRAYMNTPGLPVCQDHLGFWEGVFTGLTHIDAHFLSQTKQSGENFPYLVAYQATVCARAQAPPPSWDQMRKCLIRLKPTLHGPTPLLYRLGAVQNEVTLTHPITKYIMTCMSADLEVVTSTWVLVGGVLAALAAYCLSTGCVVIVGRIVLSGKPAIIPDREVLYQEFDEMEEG
HCV NS3/4A protease complex, BMS strain, sequence (P27958 1027-1711, one chain of several): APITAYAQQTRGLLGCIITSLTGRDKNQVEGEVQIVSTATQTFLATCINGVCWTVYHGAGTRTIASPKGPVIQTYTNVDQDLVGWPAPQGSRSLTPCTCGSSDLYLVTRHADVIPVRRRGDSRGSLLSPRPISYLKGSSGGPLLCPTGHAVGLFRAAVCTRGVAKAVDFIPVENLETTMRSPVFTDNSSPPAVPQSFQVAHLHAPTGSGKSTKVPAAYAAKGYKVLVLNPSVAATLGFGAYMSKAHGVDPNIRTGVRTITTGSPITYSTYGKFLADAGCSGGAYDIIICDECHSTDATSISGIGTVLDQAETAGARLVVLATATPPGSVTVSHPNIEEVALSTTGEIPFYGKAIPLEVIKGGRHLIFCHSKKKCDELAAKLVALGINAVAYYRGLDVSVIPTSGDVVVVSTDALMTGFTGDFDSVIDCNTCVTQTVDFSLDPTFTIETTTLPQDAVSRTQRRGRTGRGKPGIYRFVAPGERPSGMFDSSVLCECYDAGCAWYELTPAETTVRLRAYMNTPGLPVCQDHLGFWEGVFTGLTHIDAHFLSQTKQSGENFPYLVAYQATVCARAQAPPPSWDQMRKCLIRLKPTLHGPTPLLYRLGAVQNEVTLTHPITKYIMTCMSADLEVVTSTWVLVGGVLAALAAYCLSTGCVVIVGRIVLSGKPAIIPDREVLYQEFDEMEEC

With `CC(C)(C)OC(=O)N[C@H]1CN(C2CC2)CCC/C=C\C2C[C@@]2(C(=O)NS(=O)(=O)C2CC2)NC(=O)[C@@H]2C[C@@H](Oc3ccccn3)CN2C1=O` (some centres unmarked) [Compound 1], the pIC50 is 7.74 in data set [1], less than 4.00 in data set [2], 7.01 in data set [3] and 7.92 in data set [4].
Consider `CC(C)(C)OC(=O)N[C@H]1CCCOC/C=C\[C@@H]2C[C@@]2(C(=O)NS(=O)(=O)C2CC2)NC(=O)[C@@H]2C[C@@H](OCc3ccccc3)CN2C1=O` [Compound 5, (1S,4R,6S,14S,18R, 7-cis)-18-benzyloxy-14-tert-butoxycarbonylamino-4-cyclopropanesulfonylaminocarbonyl-2,15-dioxo-3,16-diaza-10-oxatricyclo[14.3.0.04,6]nonadec-7-ene], for which the melting point fell in the range of 147 to 149 °C.
